The test has as its target Perilipin-5 (Homo sapiens) + 1-acylglycerol-3-phosphate O-acyltransferase ABHD5 (Homo sapiens) (UniProt Q00G26+Q8WTS1). The test is described as follows: ABHD5-PLIN5 interaction inhibitors, late-stage follow-up, biochemical, luminescence (AID 651761).

The values that follow come from PubChem BioAssay AID651761 (The Scripps Research Institute Molecular Screening Center, 2012).

As usually defined, the IC50 is the concentration at which inhibition is half-maximal.

“And” between values parts separate entries of the source, which are not always exact repeats. Equal values may be shown once. The source made the active and inactive calls. The rule behind the calls is not given here.

Chain of Perilipin-5 (Homo sapiens) + 1-acylglycerol-3-phosphate O-acyltransferase ABHD5 (Homo sapiens) (Q00G26 whole entry, looked up): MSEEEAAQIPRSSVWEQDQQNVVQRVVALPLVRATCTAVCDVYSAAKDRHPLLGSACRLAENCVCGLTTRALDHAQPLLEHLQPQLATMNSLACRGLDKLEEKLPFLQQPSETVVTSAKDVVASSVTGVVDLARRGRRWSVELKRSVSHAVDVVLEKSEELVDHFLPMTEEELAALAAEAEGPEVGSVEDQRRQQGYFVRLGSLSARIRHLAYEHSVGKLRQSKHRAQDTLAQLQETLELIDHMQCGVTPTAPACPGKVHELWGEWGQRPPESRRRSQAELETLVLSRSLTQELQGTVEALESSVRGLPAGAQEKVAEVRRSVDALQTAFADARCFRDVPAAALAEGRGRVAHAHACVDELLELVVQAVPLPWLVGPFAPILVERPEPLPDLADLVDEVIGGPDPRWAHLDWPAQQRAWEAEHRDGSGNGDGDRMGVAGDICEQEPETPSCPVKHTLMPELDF
Chain of Perilipin-5 (Homo sapiens) + 1-acylglycerol-3-phosphate O-acyltransferase ABHD5 (Homo sapiens) (Q8WTS1 whole entry, looked up): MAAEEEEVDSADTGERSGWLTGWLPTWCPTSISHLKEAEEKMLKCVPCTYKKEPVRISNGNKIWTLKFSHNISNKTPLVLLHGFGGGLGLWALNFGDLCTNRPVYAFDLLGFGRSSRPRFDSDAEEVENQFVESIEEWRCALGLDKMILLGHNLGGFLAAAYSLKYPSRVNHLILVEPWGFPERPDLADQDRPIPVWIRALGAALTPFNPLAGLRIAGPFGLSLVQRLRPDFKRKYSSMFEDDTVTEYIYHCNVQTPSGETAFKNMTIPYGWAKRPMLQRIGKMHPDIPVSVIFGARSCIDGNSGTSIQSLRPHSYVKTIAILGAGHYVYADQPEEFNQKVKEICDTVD

Turning to `CC(CCc1ccco1)NC(=O)CCc1nnc2ccc(NCc3ccccc3Cl)nn12` (stereo unspecified), the IC50 was 1.01 µM.
`CCN(CC)CCN(CC(=O)Nc1c(C)cc(C)cc1C)C(=O)c1ccccc1`: the IC50 is 5.67 µM.
To `CCN(CC)CCNC(=O)c1ccc(NC(=O)c2cn(-c3ccccc3)nc2-c2cccs2)cc1` belongs “inactive”; to `CC(=O)Nc1ccc(S(=O)(=O)N2c3ccc(F)cc3CCC2C)cc1` (stereo unspecified), 6.48 µM.
In the case of `CN1CCC(=C2c3ccccc3CC(=O)c3sccc32)CC1`, the IC50 was > 39.8 µM (inactive).
To `Cc1cc(C)c(NC(=O)CN2CCN3CCCC3C2)c(C)c1` (stereo unspecified) belongs “inactive”; to `COc1ccc(NC(=S)N(CCCN2CCCC2)Cc2cccn2Cc2ccc(Cl)cc2)cc1Cl`, “inactive”.
On to `Cc1ccc2c(CC(=O)N3CCN(S(=O)(=O)c4ccc5c(c4)OCCO5)CC3)coc2c1`, for which the IC50 is 5 µM and 5.03 µM.
`CN(C)CCCN(C(=O)CCc1ccccc1)c1nc2ccc(Br)cc2s1`: the IC50 is 8.16 µM.
To `CC(=O)Cc1cc(O)c2ccccc2c1OC(=O)c1ccc(Br)cc1` belongs 2.68 µM; to `CC(C)c1ccc(N2C=Nc3ccc(C(C)C)cc3C2)cc1`, 1.56 µM; to `CCCCOC(=O)Nc1cc(C(=O)OC)ccc1C(=O)OC`, 5.26 µM.
As to `CCCCNC(=O)Nc1ccc2c(c1)N(C)C(=O)c1ccccc1S2`, the IC50 was 3.02 µM.
Consider `CCN(CC)CCOc1ccc(/C(=C(/Cl)c2ccccc2)c2ccccc2)cc1`, for which the IC50 was 1.11 µM.
With `CCN(CC)CCC(C)OC(c1ccccc1)c1ccccc1` (stereo unspecified), the IC50 was 1.79 µM.
`CC1Sc2ccc(S(=O)(=O)N3CCC(C(=O)NCc4ccc(Cl)cc4)CC3)cc2NC1=O` (stereo unspecified): the 50% inhibitory concentration (IC50) was 8.56 µM.
On to `NC(=NCCCCCCN=C(N)/N=C(\N)Nc1ccc(Cl)cc1)/N=C(\N)Nc1ccc(Cl)cc1`, for which the IC50 is 2.64 µM.
Regarding `COc1cc(OC)cc(C(=O)NC(=S)N(Cc2ccccc2)C(C)C)c1`, the IC50 is 1.44 µM.
Turning to `O=c1[nH]c(C2CCN(S(=O)(=O)c3ccc(S(=O)(=O)NC4CC4)cc3)CC2)nc2c1nnn2Cc1ccc(F)cc1`, the IC50 was 3.42 µM.
For the compound `C=C[C@]1(C)C[C@@H](OC(=O)CSCCN(CC)CC)[C@]2(C)C(C)CC[C@]3(CCC(=O)[C@H]32)[C@@H](C)[C@@H]1O` (stereo partly specified), the IC50 was 8.02 µM.
With `O=C(C[n+]1cccc(CNC(=O)c2ccc(OC(F)F)cc2)c1)Nc1cccc(C(F)(F)F)c1`, the IC50 entry is “inactive”.
As to `O=c1[nH]c(C2CCN(S(=O)(=O)c3ccc(F)cc3)CC2)nc2c1nnn2Cc1ccc2c(c1)OCCO2`, the IC50 entry is “inactive”.
In the case of `Cc1cc(C)c2nc(NNC(=O)c3ccc(S(=O)(=O)N4CCCC(C)C4)cc3)sc2c1` (stereo unspecified), the IC50 was 4.11 µM.
With `CC1CCN(S(=O)(=O)c2ccc(NC(=O)Cc3ccccc3)cc2)CC1`, the IC50 is 8.77 µM.
To `CN(C)CCOC1(Cc2ccc(F)cc2)CCC(C(C)(C)C)CC1` (stereo unspecified) belongs > 39.8 µM (inactive).
Turning to `COc1cc(C)c2sc3ccccc3c(=O)c2c1NCCN(C)C`, the IC50 is > 39.8 µM (inactive).
Consider `CCOC(=O)c1c(NC(=O)/C=C/C(=O)O)sc(C)c1-c1ccc(C(C)(C)C)cc1`, for which the IC50 was 5.05 µM.
As to `CC1CCN(S(=O)(=O)c2ccc(NC(=O)Cc3cccs3)cc2)CC1`, the IC50 is 8.64 µM.
Regarding `CCOC(=O)c1c(NC(C)=O)sc2c1CCC(C=O)=C2Sc1ccccc1`, the IC50 is 1.79 µM.
As to `CCCNC(=O)Nc1ccc2c(c1)N(C)C(=O)c1ccccc1S2`, the IC50 was 7.42 µM.
On to `CN(C)CCN(Cc1ccco1)c1ccccn1`, for which the IC50 is > 39.8 µM (inactive).
With `Cc1nc2c(o1)CCc1ccccc1C2N1CCN(C)CC1` (stereo unspecified), the 50% inhibitory concentration (IC50) is 2.75 µM.
On to `FC(F)(F)c1cccc(NC(=S)N(CCCN2CCCC2)Cc2cccn2Cc2ccc(Cl)cc2)c1`, for which the IC50 entry was “inactive”.
Consider `Cc1cc(C)c(NC(=O)C[N+](C)(C)CC(O)COc2cccc3ccccc23)c(C)c1` (stereo unspecified), for which the IC50 is 4.32 µM.
`CC(=O)Oc1ccc(C23c4ccccc4C2(OC(C)=O)c2cc(OC(C)=O)ccc23)cc1` (stereo unspecified): the IC50 is > 39.8 µM (inactive).
As to `Cc1ccc2nc3cc([N+](=O)[O-])cc([N+](=O)[O-])c3cc2c1`, the IC50 is 0.619 µM.
With `CN(C)CCCN(C(=O)CCc1ccccc1)c1nc2ccc(Cl)cc2s1`, the IC50 is 7.07 µM.
As to `COc1ccccc1-c1cc(C(=O)NC2CCN(C)CC2)c2ccc(Cl)c(C)c2n1`, the IC50 entry is “inactive”.
Then `O=C(/C(=C/O)N=Nc1ccc(Cl)cc1)c1ccncc1`, with 9.67 µM.
With `CC(=O)Cc1cc(O)c2ccccc2c1OC(=O)c1ccccc1`, the IC50 is 1.52 µM.
As to `COc1ccc(C)c2sc(N(CCN(C)C)C(=O)/C=C/c3cccs3)nc12`, the IC50 is 6.96 µM.
To `COCCN(CCOC)c1nc(N)c2c(N)nc3c(c2c1C#N)CC(=O)N3Cc1ccc(Cl)cc1` belongs > 39.8 µM (inactive); to `CCN(CC)CCOCCOC(=O)C1(c2ccccc2)CCCC1`, 0.985 µM; to `CCOc1cc(N)c(Cl)cc1C(=O)NCC1CN(Cc2ccc(F)cc2)CCO1` (stereo unspecified), 1.34 µM.
Turning to `COc1cc2c(cc1OC)C(C)N(CCc1ccc(Cl)cc1)CC2` (stereo unspecified), the IC50 result was “inactive”.
For the compound `CC1=CC(C)(C)Nc2ccc(OC(=O)C(C)N3C(=O)c4ccccc4C3=O)cc21` (stereo unspecified), the IC50 is 3.02 µM.
